Here are results for two compounds from ChEMBL document CHEMBL1147573, “Chemiluminescence quenching of pteroic acid-N-sulfonyl-acridinium-9-carboxamide conjugates by folate binding protein” (Bioorg Med Chem Lett, 2004).

A short description of the assay: Binding affinity towards folate binding protein.

As a reminder, the IC50 is the concentration that gives 50% inhibition. Read a high IC50 as a need for much substance.

SMILES strings stand for the structures.

With `Cc1ccc(S(=O)(=O)N(CCCS(=O)(=O)[O-])C(=O)c2c3ccccc3[n+](CCCCCCCCCC(=O)NCCCCCCNC(=O)c3ccc(N(Cc4cnc5nc(N)nc(O)c5n4)C(=O)C(F)(F)F)cc3)c3ccccc23)cc1`, the IC50 is 8.14 nM.

`Cc1ccc(S(=O)(=O)N(CCCC(=O)NCCCCCCNC(=O)c2ccc(N(Cc3cnc4nc(N)nc(O)c4n3)C(=O)C(F)(F)F)cc2)C(=O)c2c3ccccc3[n+](CCCS(=O)(=O)[O-])c3ccccc23)cc1` registered a 50% inhibitory concentration (IC50) of 8.43 nM.
